For 1 substance, Toxicity/IC50 results are on record in patent US20230165974A1, “COMPOSITIONS AND METHODS FOR DELIVERING PHARMACEUTICALLY ACTIVE AGENTS” (MEDIMMUNE, LLC, priority 2020, published 2023).

For assay [1], the system named is H1299 cells. As to the kind of experiment: Toxicity of polymer materials in vitro (metabolic/luminescent viability assay). The following applies: H1299, 16-hour exposure, polymer in OPTI-MEM. The assay is classed as cell-based. Here is the method:
Material toxicity was assessed using live dead assays.
H1299 cells were seeded in 96-well plates (10000/well). After a 24 h recovery period, cells were treated with 0.1 to 2 μg of PEI (25K, Polyscience, Inc., Philadelphia Pa.), PLL (Alamanda Polymers, Inc., Huntsville Ala., 5 kDa), and P: PLL(M) 33, P: PLL(MN) 33, and P: PLL(TM) 33″ prepared in OPTI-MEM. After a 16-hour exposure, cells were analysed using a live/dead stain or metabolic assay. For the live/dead assay, 10 μL of Calcein AM (2 mM in DMSO) and 5 of propidium iodide (2 mM DMSO) stock solutions were dissolved in 5 mL of PBS. The cells were then washed with PBS twice and staining solution added (100 μL/well). After a 30-minute incubation period at 37° C., the cells were imaged using an IncuCyte plate reader (Sartorius). Alternatively, metabolic assays were performed using Celriter-Glo·Luminescent Assay using the manufacturers standard protocol. Luminescence measurements were collected using a PHERAStar plate reader (BMG LabTech) and IC50 doses were derived by fitting the data in Microsoft excel.

Assay [2] concerns C2C12. Described as above. The assay is classed as cell-based.

For the substance Poly-L-lysine [P: PLL], the Toxicity/IC50 in assay [1] is recorded as 0.21 μg/well; in assay [2] it was 0.33 μg/well.
